The source of these data is PubChem BioAssay (NCI).

One may read the GI50 as the concentration giving 50% growth inhibition. What is called TGI is the concentration giving total growth inhibition. Read a low TGI as more potent growth arrest.

What all share (assay): DTP human tumour cell line panel, 48 h
Test [1] relates to HCC-2998 colon.
Test [2] deals with M14 melanoma.
For test [3], the system named is SR leukemia.
Test [4] deals with EKVX NSCLC.
The subject of test [5] is PC-3 prostate.
Test [6] deals with OVCAR-3 ovarian.
Test [7] has as its system COLO 205 colon.
Test [8] deals with SW-620 colon.

The structures appear in SMILES notation. “And” between values parts separate entries of the source, which are not always exact repeats. Equal entries are not always repeated.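 Growth conditions: 96-well plates. Treatment: test compound, 48 hours, 5 concentrations. Analysis: linear interpolation between bracketing concentrations; unreached endpoints set to highest concentration. GI50 marks 50% less growth. TGI denotes the concentration required for complete inhibition of growth.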

Consider `Clc1ccccc1[C@@H]1C[C@@H]2Cc3cc(Br)c4ccccc4c3N1O2`, for which the GI50 is 4.19 µM in test [1]; 3.74 µM in test [2]; 3.33 µM in test [3]; 23.3 µM in test [4]; 5.85 µM in test [5]; 3.29 µM in test [6]. Further, the GI50 was 3.95 µM in test [7] and 3.69 µM in test [8]. Further, the TGI is above 100 µM in test [1]; above 100 µM in test [2]; above 100 µM in test [3]; above 100 µM in test [4]; above 100 µM in test [5]; 11.1 µM in test [6]. Also, the TGI in test [7] was 74 µM; in test [8] it was above 100 µM.
With `CN(C)c1ccc(C(=N)c2ccc(N(C)C)cc2)cc1`, the GI50 was 6.39 µM and 7.12 µM in test [1]; 2.13 µM and 2.95 µM in test [2]; 0.736 µM in test [3]; 5.33 µM and 5.17 µM in test [4]; 3.75 µM and 3.74 µM in test [5]; 1.68 µM and 1.91 µM in test [6]. Further, the GI50 in test [7] is 2.49 µM and 2.16 µM; in test [8] it was 1.95 µM and 2.58 µM. Moreover, the TGI in test [1] is 33.6 µM and 32.6 µM; in test [2], 10.8 µM and 16.8 µM; in test [3], 5.3 µM; in test [4], above 100 µM; in test [5], 36.2 µM and > 100 µM; in test [6], 5.26 µM and 7.3 µM. In addition, the concentration for total growth inhibition (TGI) in test [7] is 10.7 µM and 8.83 µM; in test [8], 20.8 µM and > 100 µM.
Consider `O=c1cc(-c2ccccc2)oc2ccc(OC/C(=N/O)c3ccc(F)cc3)cc12`, for which the GI50 is 4.41 µM in test [1]; 4.48 µM in test [2]; 2.09 µM in test [3]; 1.97 µM in test [4]; 2.72 µM in test [5]; 1.67 µM in test [6]. Besides, the GI50 in test [7] was 2.23 µM; in test [8], 2.67 µM. For the same compound, the TGI was 12.5 µM in test [1]; above 50 µM in test [2]; above 50 µM in test [3]; 15.8 µM in test [4]; 12.3 µM in test [5]; 7.2 µM in test [6]. Moreover, the TGI stood at 8.19 µM in test [7] and 32.8 µM in test [8].
On to `C=C(C)[C@@H]1C/C=C(/CO)CC[C@H]2O[C@]2(C)CC/C=C(\C)CC1`, for which the GI50 in test [1] was 19.8 µM; in test [2] it was 15 µM; in test [3] it was 17.2 µM; in test [4] it was 12.9 µM; in test [5], 11.8 µM; in test [6], 22.2 µM. Besides, the GI50 in test [7] is 13.2 µM; in test [8], 26.3 µM. Moreover, the TGI in test [1] amounted to 40.4 µM; in test [2], 29.9 µM; in test [3], 38.6 µM; in test [4], 36 µM; in test [5], 30.9 µM; in test [6], 42.9 µM. Further, the TGI in test [7] worked out at 26.7 µM; in test [8], 61.5 µM.
`COc1cc(OC)c(/C=C/C(=O)c2ccc(Nc3ncnc4ccccc34)cc2)c(OC)c1`: the GI50 in test [1] is 1.94 µM; in test [2] it was 0.575 µM; in test [3], 0.142 µM; in test [4], 1.69 µM; in test [5], 0.707 µM; in test [6], 0.365 µM. For the same compound, the GI50 is 0.614 µM in test [7] and 0.403 µM in test [8]. The total growth inhibition concentration (TGI) in test [1] came to 14.2 µM; in test [2], 2.5 µM; in test [3], 1.1 µM; in test [4], 8.99 µM; in test [5] it was 8.33 µM; in test [6] it was 1.43 µM. For the same compound, the TGI in test [7] came out at 2.22 µM; in test [8], 2.64 µM.
For the compound `O=C1NC(=O)[C@@]2(CC[C@@H](O)C2)c2ccncc21`, the total growth inhibition concentration (TGI) in test [1], in test [2], in test [3], in test [4], in test [5] and in test [7] was above 100 µM throughout. Further, the TGI in test [8] was above 100 µM.
`O=C(O)C(Br)C(Br)C(=O)O` (stereo not drawn): the TGI in test [1], in test [2], in test [3], in test [4], in test [5] and in test [6] was above 100 µM in each case. In addition, the TGI in test [7] and in test [8] was above 100 µM each time.
In the case of `O=C1NC(O)c2ccccc2O1` (stereo not drawn), the TGI in test [1], in test [2], in test [3], in test [4], in test [5] and in test [6] was above 100 µM each time. The total growth inhibition concentration (TGI) in test [7] and in test [8] was above 100 µM each time.
For `Nc1ncn(C2OC(COP(=O)(O)O)C(O)C2O)c(=O)n1` (stereo not drawn), the total growth inhibition concentration (TGI) in test [1] is above 100 µM; in test [2], above 100 µM; in test [3], above 100 µM; in test [4] it was above 79 µM; in test [5], above 100 µM; in test [6] it was above 100 µM. Besides, the TGI in test [7] and in test [8] was above 100 µM throughout.
Turning to `COc1cccc(-n2ncc3c(N/N=C/c4ccc(C)cc4)ncnc32)c1`, the GI50 is above 25 µM in test [1]; above 25 µM in test [2]; above 14.4 µM in test [3]; above 25 µM in test [4]; above 25 µM in test [5]; above 25 µM in test [6]. The values for the GI50 in test [7] and in test [8] were 9.56 µM and above 25 µM, respectively. The total growth inhibition concentration (TGI) in test [1], in test [2], in test [3], in test [4], in test [5] and in test [6] was above 25 µM each time. Further, the concentration for total growth inhibition (TGI) in test [7] and in test [8] was above 25 µM in each case.
With `Cc1ccc2[nH]c3c(c2c1)N=c1ccccc1=NO3`, the GI50 in test [1] is 81.7 µM; in test [2] it was 48 µM; in test [3], 33.4 µM; in test [4], 26.2 µM; in test [5], 57 µM; in test [6] it was 25.8 µM. The results for the GI50 in test [7] and in test [8] were 31.9 µM and above 100 µM, respectively. Also, the TGI in test [1], in test [2], in test [3], in test [4], in test [5] and in test [6] was above 100 µM each time. Further, the TGI in test [7] and in test [8] was above 100 µM each time.
